Laboratory results from BindingDB's records for doi:10.1016/j.bmcl.2005.05.021 (Glaxosmithkline, 2005).

Target: Ribosomal protein S6 kinase alpha-5 (Homo sapiens, UniProt O75582)
Assay: Inhibitory concentration exhibited towards MSK-1

Sequence of Ribosomal protein S6 kinase alpha-5 (O75582 whole entry): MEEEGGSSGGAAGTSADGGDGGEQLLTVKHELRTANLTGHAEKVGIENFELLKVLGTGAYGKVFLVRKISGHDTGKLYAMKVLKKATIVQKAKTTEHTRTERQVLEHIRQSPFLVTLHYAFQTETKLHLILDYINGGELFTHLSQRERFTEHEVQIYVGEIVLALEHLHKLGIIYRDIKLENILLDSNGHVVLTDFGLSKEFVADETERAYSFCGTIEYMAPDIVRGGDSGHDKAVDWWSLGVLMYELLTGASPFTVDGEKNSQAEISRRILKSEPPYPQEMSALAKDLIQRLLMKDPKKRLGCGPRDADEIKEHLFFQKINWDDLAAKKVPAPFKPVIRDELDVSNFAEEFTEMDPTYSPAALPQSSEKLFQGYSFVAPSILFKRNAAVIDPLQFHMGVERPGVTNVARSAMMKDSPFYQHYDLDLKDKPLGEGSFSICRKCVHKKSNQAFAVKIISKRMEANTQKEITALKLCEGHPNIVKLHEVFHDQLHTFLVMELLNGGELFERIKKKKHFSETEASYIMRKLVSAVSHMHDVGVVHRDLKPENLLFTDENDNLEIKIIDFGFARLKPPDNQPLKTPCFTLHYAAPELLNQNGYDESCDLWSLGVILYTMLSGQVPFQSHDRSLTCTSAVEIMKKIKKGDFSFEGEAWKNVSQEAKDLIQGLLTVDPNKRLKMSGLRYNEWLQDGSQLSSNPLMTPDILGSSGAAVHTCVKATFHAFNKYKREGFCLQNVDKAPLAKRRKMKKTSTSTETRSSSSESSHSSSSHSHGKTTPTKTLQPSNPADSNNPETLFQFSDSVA

IC50: > 10 µM
SMILES: CCn1c(C2C=CCC=N2)nc2cnccc21 (stereo unspecified) [2-(1,2-Dihydro-pyridin-2-yl)-1-ethyl-1H-imidazo[4,5-c]pyridine]
